Here are results for 121 molecules from a melting point compilation (Tetko et al.).

Consider `COc1cc(C)c(C(C)=O)cc1OC`, for which the melting point (usually the temperature of the solid-liquid transition) fell in the range of 73 to 75 °C.
With `O=C(O)C1=Cc2cccc(O)c2OC1` the figure was 233 to 235 °C; with `Nc1ccc(F)c(NC(=O)Cc2ccccc2)c1`, 180 to 182 °C; with `COc1ccc(-c2nc(C(=O)O)cs2)cc1`, 172 to 174 °C.
`O=C(CSc1ccccc1C(=O)O)NC1CCCCCCC1` showed a melting point of 168 to 170 °C.
The result for `Cc1nc(S)n(C2CCCCC2)c1C` reads 218 to 220 °C; that for `C=CCn1c(=S)sc2c(=O)[nH]cnc21`, 216 to 218 °C; that for `Nc1nc(-c2ccc(C3CCCCC3)cc2)cs1`, 227 to 229 °C.
`CCn1c(S)nnc1-c1ccncc1` showed a melting point of 140 to 142 °C.
Molecule `CN(C)S(=O)(=O)c1cccc(C(=O)NN)c1` had a melting point of 149 to 151 °C.
In turn, `O=C(Nc1cccc(C(=O)O)c1)Nc1ccc(Cl)c(Cl)c1` displayed a melting point of 279 to 281 °C.
The result for `CC(=O)N1CC=C(c2ccc(O)cc2)CC1` reads 188 to 190 °C; that for `C=CC(=O)Nc1cc(Cl)c(OC)cc1OC`, 142 to 144 °C.
Take `O=C(O)/C=C/c1nccs1`: the melting point fell in the range of 182 to 184 °C.
`O=C1C=CC(=O)N1c1ccccc1Sc1ccc(Cl)cc1` gave a melting point of 54 to 56 °C.
`Nc1cc(Cl)ncn1` yielded a melting point of 196 to 198 °C.
Molecule `CSc1ccc([N+](=O)[O-])c(C(=O)O)c1` gave a melting point of 176 to 178 °C.
`Nc1nc2c(F)c(F)c(F)cc2s1`: the melting point fell in the range of 160 to 164 °C.
The molecule `c1cc2c(s1)C1(CCNCC1)OCC2` had a melting point of 95 to 97 °C.
Molecule `CCOC(=O)c1snc(C(N)=O)c1N` yielded a melting point of 205 to 207 °C.
With `NC1CCN(CC(=O)Nc2ccccc2)CC1`, the melting point was in the range of 75 to 77 °C.
Molecule `COc1ccc(C(CNC(=O)OCC(F)(F)F)N2CCCC2)cc1` (stereo unspecified) registered a melting point of 55 to 57 °C.
In turn, `CC(C)(C)Cc1cc(N)n[nH]1` registered a melting point of 106 to 108 °C.
The molecule `O=C(O)CCCNc1ccccc1[N+](=O)[O-]` showed a melting point of 115 to 119 °C.
With `CN(CCO)CCC(=O)O`, the melting point lay within 89 to 91 °C.
In turn, `NC(=O)NCc1ccc(S(N)(=O)=O)cc1` gave a melting point of 175 to 177 °C.
Take `Cc1cc(F)ccc1-n1cc(C(=O)O)nn1`: the melting point lay within 129 to 131 °C.
`CC(C)(C)Oc1ccc(C(N)=S)cc1` returned a melting point of 179 to 181 °C.
The molecule `CCCc1ccc(C(=O)COc2ccc(C=O)cc2OC)cc1` had a melting point of 73 to 75 °C.
With `c1ccc(COc2ccc3ncccc3c2)cc1` the figure was 73 to 75 °C; with `Cc1cc(C)c(S(=O)(=O)Nc2cccc(C(F)(F)F)c2)c(C)c1`, 88 to 90 °C.
With `NCC1(O)Cc2ccccc2C1` the figure was 64 to 66 °C.
With `O=C(NC1(C(=O)O)CCCCC1)c1ccc(Br)cc1` the figure was 238 to 240 °C; with `O=C1CC(c2cccnc2)CN1` (stereo unspecified), 69 to 71 °C; with `Clc1ccc(OC2CCCNC2)nc1` (stereo unspecified), 64 to 66 °C.
In turn, `CC(C(=O)O)c1ccc(Br)cc1` (stereo unspecified) returned a melting point of 54 to 56 °C.
The molecule `NC(=O)C1CCCCN1C(=O)c1cccc(Br)c1` (stereo unspecified) had a melting point of 177 to 179 °C.
With `N#CCC(=O)c1ccc(F)c(Cl)c1` the figure was 59 to 61 °C; with `O=C(O)c1c(F)ccc(S(=O)(=O)Cl)c1F`, 107 to 111 °C.
The molecule `BrCCC12CC3CC(CC(C3)C1)C2` displayed a melting point of 56 to 58 °C.
As to `Cc1cc(C(=O)O)cc(S(=O)(=O)Cl)c1C`, the melting point is 171 to 173 °C.
As for `O=S(=O)(Cl)c1cc2c(cc1Br)OCCO2`, the melting point lay within 173 to 175 °C.
As to `CC(=O)c1ccc(-c2ccc(Br)s2)cc1`, the melting point lay in the range of 148 to 150 °C.
Take `COc1cccc2[nH]cc(CCN)c12`: the melting point lay within 119 to 121 °C.
Take `O=C(O)c1ccccc1NS(=O)(=O)c1ccc(Cl)c([N+](=O)[O-])c1`: the melting point lay within 211 to 213 °C.
Take `O=C(O)CSC(=Cc1ccco1)c1nc2ccccc2s1`: the melting point lay in the range of 133 to 135 °C.
As for `O=c1cc(-c2ccccc2)c2cc(Cl)c(O)cc2o1`, the melting point was 260 to 262 °C.
Molecule `COc1ccc2[nH]cc(C(=O)O)c2c1` showed a melting point of 179 to 181 °C.
In turn, `O=C(O)C1CCN(C(=O)c2ccccn2)CC1` came in with a melting point of 146 to 148 °C.
`CC(C)(C)OC(=O)Nc1ccc(O)cc1` yielded a melting point of 131 to 133 °C.
Molecule `CCOc1ccc(Br)cc1N` returned a melting point of 51 to 53 °C.
With `CC(C)(C)c1ccc2cc(C(=O)O)[nH]c2c1` the figure was 157 to 159 °C.
`COc1ccc(-c2nc(N)sc2C)cc1OC` returned a melting point of 185 to 187 °C.
The molecule `Cc1cc2c[nH]nc2c(C(=O)O)c1N` showed a melting point of 174 to 176 °C.
The molecule `Cc1ccc(CNCCO)cc1` yielded a melting point of 62 to 64 °C.
`O=C(CCl)NC(Cc1c[nH]c2ccccc12)C(=O)O` (stereo unspecified) showed a melting point of 153 to 155 °C.
As for `CC(=O)N1CCN(S(=O)(=O)c2cccc(C(=O)O)c2)CC1`, the melting point was 258 to 262 °C.
`O=C(Nc1ccc(Br)cc1)c1cccnc1Cl` returned a melting point of 150 to 152 °C.
`COC(=O)C1C2CCC(N2)C1C(=O)OC` (stereo unspecified) displayed a melting point of 77 to 79 °C.
The molecule `Cc1nc(NC2CC2)sc1C(=O)O` registered a melting point of 208 to 210 °C.
`CCC1Nc2ccc(C(=O)O)cc2NC1=O` (stereo unspecified) had a melting point of 250 to 252 °C.
With `NNC(=O)c1cc(-c2ccccc2)on1` the figure was 125 to 127 °C; with `O=C(NCCCl)C1CCCC1`, 72 to 74 °C; with `Nc1ccccc1S(=O)(=O)Nc1ccccc1`, 118 to 120 °C.
In turn, `Cc1ccccc1Cc1cnc(N)s1` showed a melting point of 102 to 104 °C.
The result for `NC(=O)c1ccc(C(=O)O)o1` reads 286 to 288 °C; that for `Nc1ccc(-c2n[nH]c(=O)[nH]2)cc1`, 333 to 335 °C; that for `O=Cc1sc(N2CCOCC2)nc1-c1ccccc1`, 181 to 183 °C.
Take `COc1ccc2nc(Cl)ccc2c1`: the melting point lay within 103 to 105 °C.
In turn, `CC(Cc1ccccc1Cl)C(=O)O` (stereo unspecified) displayed a melting point of 56 to 58 °C.
The result for `CCCC1CCc2nc(N)sc2C1` (stereo unspecified) reads 78 to 80 °C; that for `O=C(O)C1CCCCN1C(=O)c1ccccc1` (stereo unspecified), 128 to 130 °C.
With `O=C(O)CCCc1ccc2[nH]c(=O)[nH]c2c1` the figure was 244 to 246 °C; with `O=C(O)c1c[nH]c2ccc(I)cc2c1=O`, 286 to 288 °C; with `CCOC(=O)COc1ccc(C(C)=O)cc1`, 52 to 54 °C.
In the case of `COc1ccc2cc(C(N)=S)ccc2c1`, the melting point lay within 188 to 190 °C.
For the molecule `NS(=O)(=O)c1ccc([N+](=O)[O-])cc1[N+](=O)[O-]`, the melting point lay in the range of 149 to 151 °C.
Molecule `O=C(O)c1ccc(-c2nc3ccccc3s2)s1` returned a melting point of 254 to 256 °C.
`CC(C)(C)n1ncc(Cl)c(Cl)c1=O` yielded a melting point of 64 to 66 °C.
`CSCc1c(C(=O)O)sc2ccccc12` had a melting point of 201 to 203 °C.
Regarding `CSc1ccc(C(=O)O)o1`, the melting point is 126 to 128 °C.
Regarding `N#Cc1ccc2nc(Cl)ccc2c1`, the melting point lay in the range of 208 to 210 °C.
Regarding `N#CC1(NC(=O)c2ccccc2)CCC1`, the melting point was in the range of 126 to 128 °C.
The molecule `CC(C)NC(=O)C(C#N)=CN(C)C` displayed a melting point of 113 to 115 °C.
As to `O=[N+]([O-])c1c(F)cccc1S(=O)(=O)Cl`, the melting point was 52 to 54 °C.
With `CC(=O)CC(=O)Nc1ccccc1F` the figure was 75 to 77 °C; with `Clc1ncc(-c2ccccc2)s1`, 40 to 42 °C; with `CNCCCc1n[nH]c(N)c1C#N`, 179 to 181 °C.
With `CC1Cc2c(Br)cccc2C(=O)N1` (stereo unspecified) the figure was 135 to 137 °C; with `O=C(O)CCCCc1ccc(O)c(O)c1`, 93 to 95 °C; with `Cc1cc(=O)n(CC(=O)NC(C)C)c(C)c1C(=O)O`, 229 to 231 °C.
With `Cn1cc(C(=O)NCC2CCNCC2)cn1` the figure was 175 to 177 °C; with `NC(=O)c1cnn(-c2ncccn2)c1N`, 256 to 258 °C.
Turning to `CC1CC(C)CN(c2ccc(C(=O)O)cc2[N+](=O)[O-])C1` (stereo unspecified), the melting point was in the range of 167 to 169 °C.
With `O=C(O)c1ccccc1N1CCCC1` the figure was 87 to 89 °C; with `CCC1(c2ccc(C)cc2)CC(=O)NC1=O` (stereo unspecified), 76 to 78 °C.
The molecule `NC(=O)CNCC(N)=O` showed a melting point of 129 to 131 °C.
`O=C(O)CCNS(=O)(=O)c1cccc(Cl)c1` gave a melting point of 143 to 145 °C.
As for `COC(=O)c1cc(S(=O)(=O)Cl)c(F)cc1F`, the melting point was in the range of 104 to 106 °C.
`COC(=O)c1ccc(O)c(C(C)=O)c1` returned a melting point of 96 to 98 °C.
Regarding `Nc1nc(-c2c(F)cccc2F)n[nH]1`, the melting point lay in the range of 218 to 220 °C.
Turning to `NC(=O)NC(=O)C(Cl)c1ccccc1` (stereo unspecified), the melting point was 170 to 172 °C.
`COc1cccc(C=C(CC(=O)O)c2nc3ccccc3s2)c1` came in with a melting point of 153 to 155 °C.
Molecule `COc1cccc(C(N)C(=O)O)c1` (stereo unspecified) had a melting point of 198 to 200 °C.
On to `Cc1csc2ccc(Cl)cc2c1=O`, for which the melting point was 109 to 111 °C.
In the case of `COC(=O)c1cc(S(=O)(=O)Cl)cnc1Cl`, the melting point is 48 to 50 °C.
The molecule `N#CCc1ccc(NC2CCCCC2)cc1` registered a melting point of 57 to 59 °C.
`CC1(CCCC(=O)O)NC(=O)NC1=O` (stereo unspecified) showed a melting point of 149 to 151 °C.
On to `CCOC(=O)/C(C#N)=C\Nc1ccc(OC(F)F)cc1`, for which the melting point was in the range of 101 to 103 °C.
In the case of `O=C(O)CCNC(=O)CCC(=O)O`, the melting point was in the range of 132 to 134 °C.
Take `CCNC(=O)c1cc(Cl)ccn1`: the melting point lay within 60 to 62 °C.
`Sc1nnc(N2CCOCC2)s1`: the melting point lay within 179 to 181 °C.
In turn, `Cc1cc(C)cc(Nc2nnc(SC(C)C(=O)O)s2)c1` (stereo unspecified) returned a melting point of 127 to 129 °C.
As to `CS(=O)(=O)c1cc(N)cc(C(=O)O)c1`, the melting point was in the range of 257 to 259 °C.
Consider `O=c1[nH]c(-c2ncccn2)no1`, for which the melting point is 221 to 223 °C.
For the molecule `Nc1cc(C(=O)O)cc(Cl)n1`, the melting point was 289 to 291 °C.
Take `O=C(O)C1CC1c1cccc2ccccc12` (stereo unspecified): the melting point was in the range of 116 to 118 °C.
The result for `O=C(c1ccc(Br)c([N+](=O)[O-])c1)N1CCOCC1` reads 114 to 116 °C.
The result for `NC(Cn1cncn1)c1ccccc1` (stereo unspecified) reads 87 to 89 °C.
Consider `CCC(CC)n1ncc(C(=O)O)c1C`, for which the melting point was 154 to 156 °C.
On to `CCOc1ccc(C(=O)CCl)cc1`, for which the melting point was in the range of 63 to 65 °C.
